Measured values published in PMC10671648, “Nucleation of α-Synuclein Amyloid Fibrils Induced by Cross-Interaction with β-Hairpin Peptides Derived from Immunoglobulin Light Chains” (International Journal of Molecular Sciences, 2023).

Columns and labels:
β-wrapin AS10 = conditions: cited from earlier work
αSyn(61–140) = assay: ThT aggregation assay of αSyn(61–140) under quiescent conditions; assay type: biochemical; conditions: concentrations up to 50 µM
Method: Figure 5 Modulation of aggregation of truncated αSyn variants by SMAhp (left) and LENhp (right) in ThT assay under quiescent conditions. Buffer, 30 mM Tris-HCl, pH 7.4, with indicated salt concentration. ThT time course and AFM images of (A,C) 25 µM αSyn(1–95) or (B,D) 25 µM αSyn(61–140) in the absence (gray) and presence of SMAhp (A,B) or LENhp (C,D). Frames around the AFM images correspond to the frames in the kinetics diagrams for indication of the sample; the same color coding for SMAhp and LENhp concentrations as in the kinetic diagrams was used for the AFM image frames.
αSyn(1–95) and αSyn(61–140) were expressed from codon-optimized gene sequences in the pT7–7 vector in Escherichia coli BL21DE3, without N-terminal acetylation. Expression and purification were performed as for full-length αSyn, with the difference that, for αSyn(1–95), the anion exchange chromatography step was replaced by cation exchange chromatography using a 5 mL HiTrap SP FF column (Cytiva, Marlborough, MA, USA) and 10 mM sodium acetate buffer, pH 5, with elution in a NaCl gradient from 0 to 500 mM.
Aggregation kinetics were monitored in Greiner 96-well half-area, clear bottom, low-binding plates via ThT fluorescence in a BMG CLARIOstar plate reader. […] Plates were covered with sealing tape, placed in the plate reader, heated to 37 °C, and ThT fluorescence was read using bottom optics.

Net charge at neutral pH = assay type: physicochemical
αSyn = αSyn (Homo sapiens, UniProt P37840); conditions: agitation conditions; ref [62]; cited from earlier work

Row | Compound | NMR pattern with AS10 (glycine region and downfield amide resonances) (β-wrapin AS10; 1H-15N HSQC NMR of 15N-AS10, ref [57]) | Kd (β-wrapin AS10; read-out: KD for AS10, ref [57]) [nM] | affinity for AS10 (β-wrapin AS10; ref [56,57,58]) | effect of spermine on ThT fluorescence of αSyn(61–140) (αSyn(61–140)) | net charge at neutral pH (Net charge at neutral pH) | effect on αSyn fibril formation under agitation (αSyn)
1 | IAPP: islet amyloid polypeptide, disease-related amyloid protein (KCNTATCATQRLANFLVHSSNNFGAILSSTNVGSNTY; Islet amyloid polypeptide; UniProt P10997 34-70, looked up) | The same pattern has been observed before | 910 | sub-micromolar affinity | – | – | –
2 | NCCCNCCCCNCCCN [spermine] | – | – | – | did not lead to any increase in ThT fluorescence | +4 | promote αSyn fibril formation
